Laboratory results taken from patent publication US20190275145A1, “PARTICULATE VACCINE FORMULATIONS” (PDS BIOTECHNOLOGY CORPORATION, priority 2011, published 2019).

System: HPV-positive tumors (TC-1 cells)
Test: Tumor regression efficacy of R-DOTAP/S-DOTAP with HPV-16 E7 peptide antigen (encapsulated or micelles) in TC-1 tumor-bearing mice
Conditions: mouse, in vivo
Protocol: Subcutaneous HPV-positive tumors were established in mice by injecting […] TC-1 cells into the flank of each mouse on day 0. On day 6, the mice received a single subcutaneous injection of the formulations in a 0.10 ml injection.
The anti-tumor efficacy of vaccine formulations can be evaluated by evaluating tumor regression. In this example, the vaccine formulation comprises cationic lipid nanoparticles and a peptide antigen assembly in a tubular structure. Furthermore, the exemplary cationic lipid in the present example is R-DOTAP and the exemplary antigen assembly is an HPV-16 E7 micelle.
In this example, H-2Db restricted CTL epitope (amino acid 49-57, RAHYNIVTF [SEQ. ID. NO. 1]) derived from HPV 16 E7 protein was extended to amino acids 43-57, GQAEPDRAHYNIVTF, [SEQ. ID. No. 2]. SEQ. ID. No. 2 was then further extended with the amino acids KSS, and a hydrophobic palmitoyl chain was attached to the elongated peptide.
However, formulating the peptide antigen sequence into a particulate structure comprised only of SEQ. ID. No. 3 allows higher doses of the antigen to be delivered compared to delivery via a cationic lipid adjuvant delivery system. Thus, an effective means of overcoming the weak antigenicity of the peptide can be obtained.
To evaluate this approach, HPV-positive tumors were established as described in Example 3 above. […]

Sequence | antigenicity when formulated and evaluated
GQAEPDRAHYNIVTF (listed as Homo sapiens) [SEQ. ID. No. 2, HPV 16 E7 amino acids 43-57] | weak antigen
RAHYNIVTF (listed as Homo sapiens) [SEQ. ID. No. 1] | weak antigen
